The values below come from ChEMBL document CHEMBL5725304, “3,4-dihydro-2H-isoquinoline-1-one and 2,3-dihydro-isoindol-1-one compounds” (2017).

Where “and” joins values, the source holds several entries; their conditions need not be identical. Equal entries are not always repeated.

The target of experiment [1] is T1, Cytochrome P450 11B1, mitochondrial (Homo sapiens, UniProt P15538).
T1 sequence (P15538 whole entry): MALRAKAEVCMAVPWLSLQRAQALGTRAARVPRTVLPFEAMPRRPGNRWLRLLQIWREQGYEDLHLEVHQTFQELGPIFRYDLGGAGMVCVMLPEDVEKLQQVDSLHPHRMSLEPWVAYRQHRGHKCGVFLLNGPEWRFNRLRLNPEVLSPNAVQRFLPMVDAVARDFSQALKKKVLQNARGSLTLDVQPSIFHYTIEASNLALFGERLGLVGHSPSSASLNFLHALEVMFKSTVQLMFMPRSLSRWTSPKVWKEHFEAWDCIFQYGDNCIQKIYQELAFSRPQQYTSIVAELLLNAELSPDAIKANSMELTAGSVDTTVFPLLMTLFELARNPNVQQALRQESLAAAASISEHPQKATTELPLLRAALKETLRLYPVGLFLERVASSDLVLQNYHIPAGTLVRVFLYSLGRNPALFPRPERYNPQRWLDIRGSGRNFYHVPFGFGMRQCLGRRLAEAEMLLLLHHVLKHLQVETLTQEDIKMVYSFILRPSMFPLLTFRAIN
Kind of experiment: (§1) Cellular Enzyme Assay: G-402 cells expressing CYP11 constructs were established as described above and maintained in McCoy's 5a Medium Modified, ATCC Catalog No. 30-2007 containing 10% FCS and 400 ug/ml G418 (Geneticin) at 37° C. under an atmosphere of 5% CO2/95% air. Cellular enzyme assays were performed in DMEM/F12 medium containing 2.5% charcoal treated FCS and appropriate concentration of substrate (0.3-10 uM 11-Deoxycorticosterone, 11-Deoxycortisol or Corticosterone). For assaying enzymatic activity, cells were plated onto 96 well plates and incubated for 16 h. An aliquot of the supernatant is then transferred and analyzed for the concentration of the expected product (Aldosterone for CYP11B2; Cortisol for CYP11B1). The concentrations of these steroids can be determined using HTRF assays from CisBio analyzing either Aldosterone or Cortisol.

Experiment [2] concerns the target T2, Cytochrome P450 11B2, mitochondrial (Homo sapiens, UniProt P19099).
T2 sequence (P19099 whole entry): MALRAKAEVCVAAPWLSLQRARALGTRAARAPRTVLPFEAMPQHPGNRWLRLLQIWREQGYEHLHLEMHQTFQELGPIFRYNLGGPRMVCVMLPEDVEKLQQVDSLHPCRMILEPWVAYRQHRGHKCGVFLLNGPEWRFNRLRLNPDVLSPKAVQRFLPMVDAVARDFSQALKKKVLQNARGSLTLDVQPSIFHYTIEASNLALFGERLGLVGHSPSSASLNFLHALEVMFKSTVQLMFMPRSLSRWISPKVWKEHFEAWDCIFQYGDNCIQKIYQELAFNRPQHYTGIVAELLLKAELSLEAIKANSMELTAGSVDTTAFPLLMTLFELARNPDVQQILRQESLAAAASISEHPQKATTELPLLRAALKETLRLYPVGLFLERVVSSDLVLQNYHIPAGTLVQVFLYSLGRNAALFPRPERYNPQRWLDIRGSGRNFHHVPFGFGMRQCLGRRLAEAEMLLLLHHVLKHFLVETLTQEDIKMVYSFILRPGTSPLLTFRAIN
The experiment is described as §1.

One may read the EC50 as the midpoint of the concentration-response curve. A lower EC50 goes with a more potent agent.

`CCS(=O)(=O)N1CCC(N(C)c2cncc(N3C(=O)c4ccc(Cl)cc4C3(C)C)c2)C1` (single isomer, unassigned): the EC50 in experiment [1] was 188 nM and 124 nM; in experiment [2], 1 nM and 0.6 nM.
